Laboratory results: patent publication EP0085866A1, “Derivatives of benzo-1,2-thiazine-1,1-dioxide, a process for their preparation and pharmaceutical compositions containing the same” (priority 1982, dated 1983)
Where two headings read alike, the source gives them in different places.

Key:
[1] = system: oedema induced in the rat's paw by carrageenin; experiment: Antiinflammatory activity in the test of plantar edema by carrageenin; assay type: in vivo, Crl: CD(SD) male rats; conditions: for ED30: Rattus norvegicus, po; for antiinflammatory activity (in words): comparison with piroxicam, rat
Experimental: Crl: CD(SD) male rats, weighing 170-205 g, previously subjected to an acclimation period of at least one week through housing in environment with co.stant thermohygrometric conditions and fa sting with water ad libitum 18 hours before the start of the test, have been distributed "at ran dom" in groups of 5-6 animals each (4 groups cor responding to 4 different dose levels for each compound). A group of control animals has been treated only with the vehicle. […] Soc. Exp. Biol. Med. 111, 544, 1962). The volume of the treated paw has been measured by means of a water-mercury pletismometer according to Leuce P., Arch. Int. Pharmacodyn. 136, 237, 1962) immediately before and at different […] injection of the phlogogenic agent. The results have been expressed as ED30 values calculated on the logarithmic regression straight lines of the percent dose/inhibition of the oedema development, in turn determined from the ratio between the mean AUC value (area under the curve representing the development of the paw volume in the time) in the different treated animals groups and the respective control groups.

[2] = Acute toxicity by single oral administration; assay type: in vivo; conditions: mouse, in vivo
Experimental: (§1) The toxicity by single administration has been determined by oral route in male mice IVA:NMRI (SPF), fasting, with water ad libitum 18 hours before the experiment. The substances under exam were suspended in 1% carboxymethylcellulose.

[3] = system: gastric mucosa; experiment: Gastrolesive activity (macroscopic control of the gastric mucosa); assay type: in vivo, Crl: CD(SD) male rats; conditions: for Therapeutic index UD3/ED30 / Gastrolesive activity UD3: oral route, exp. session I and II (r4-r7); for Therapeutic index UD3/ED30: rat; for Gastrolesive activity UD3: dose expected to give gastric lesion of total extension of 3 mm, 7 hours after administration; for improvement of tolerability (in words): versus parent compound piroxicam
Excerpt: On the ground of such lines the calculation of UD3 values, that is a dose whereby a gastric lesion of the total extension of 3 mm is expected, has been performed.

[4] = system: fever by beer's yeast; experiment: Fever by beer's yeast; assay type: in vivo, reat; conditions: on molar basis, times as active as piroxicam
Excerpt: (§2) In other tests of direct comparison between piro xicam and CHF 1021, the latter confirmed its anti inflammatory activity, along with a good analgesic and antipiretic activity.

[5] = system: male mice IVA:NMRI (SPF); experiment: Acute toxicity by single oral administration; assay type: in vivo; conditions: versus piroxicam
Experimental: as §1

[6] = Preliminary clinical data; assay type: in vivo
[7] = system: writhing test by phenylquinone in the mouse; experiment: Writhing test by phenylquinone; assay type: in vivo; conditions: on molar basis, times as active as piroxicam
Excerpt: as §2

[8] = system: arthritis by adjuvant in the rat; experiment: Arthritis by adjuvant; assay type: in vivo; conditions: direct comparison with piroxicam
Excerpt: as §2

[9] = system: plantar oedema by nystatin in the rat; experiment: Plantar oedema by nystatin; assay type: in vivo; conditions: on molar basis, times as active as piroxicam
Excerpt: as §2

[10] = system: erythema by U.V. in the guinea pig; experiment: Erythema by U.V.; assay type: in vivo; conditions: on molar basis, times as active as piroxicam
Excerpt: as §2

[11] = 1 hour before carrageenin, from inhibition of oedema AUC, exp. session I and II (r4-r7)
[12] = single administration, oral route, fasting male mice, suspended in 1% carboxymethylcellulose, interpolation on Probit paper, read-out: Approx. LD50

| Compound | ED30 [1, 11] [µmol/kg] | antiinflammatory activity (in words) ([1]; oral route) | LD50 ([2]; po) [mg/kg] | Therapeutic index UD3/ED30 [3] | Gastrolesive activity UD3 [3] [µmol/kg] | ulcerogenic potency ratio ([3]; ratio to piroxicam taken as 1) | improvement of tolerability (in words) [3] | LD50 [2, 12] [mg/kg] | potency ratio (ratio between ED50 values) [4] | acute toxicity, lower in comparison to the reference compound [5] | antiinflammatory activity in comparison with piroxicam (in words) [6] | incidence of side effects relative to the reference drug ([6]; fraction of that of piroxicam) | potency ratio (ratio between ED50 values) [7] | ulcerogenic activity, times lower in comparison to the reference compound ([3]; versus piroxicam) | activity on the arthritis by adjuvant (in words) [8] | potency ratio (ratio between ED50 values) [9] | potency ratio (ratio between ED50 values) [10] | Antiinflammatory activity ED30 ([1]; oral route, 1 hour before carrageenin, from inhibition of oedema AUC, exp. session I and II (r4-r7)) [µmol/kg] |
| --- | --- | --- | --- | --- | --- | --- | --- | --- | --- | --- | --- | --- | --- | --- | --- | --- | --- | --- |
| CCCC(=O)OC1=C(C(=O)Nc2ccccn2)N(C)S(=O)(=O)c2ccccc21 [CHF 1115] | 5.7 | analogous or also slightly higher than the one of the parent compound | 880 | 4.2 | 23.9 | 0.88 | do not show an improvement | – | – | – | – | – | – | – | – | – | – | – |
| CCCCC(=O)OC1=C(C(=O)Nc2ccccn2)N(C)S(=O)(=O)c2ccccc21 [CHF 1109] | 7 | analogous or also slightly higher than the one of the parent compound | 1100 | 4.0 | 28.2 | – | do not show an improvement | – | – | – | – | – | – | – | – | – | – | – |
| CN1C(C(=O)Nc2nccs2)=C(OC(=O)C(C)(C)C)c2ccccc2S1(=O)=O [CHF 1047, 4-pivaloyloxy-2-methyl-2H-1,2-benzothiazine-3-[N-(2-thiazolyl)-carboxamide]-1,1-dioxide] | ~762 | very low | – | 0.2 | 121.2 | – | – | > 3000 | – | – | – | – | – | – | – | – | – | – |
| CN1C(C(=O)Nc2ccccn2)=C(OC(=O)C(C)(C)C)c2ccccc2S1(=O)=O [CHF 1021, 4-Pivaloyloxy-2-methyl-2H-1,2-benzothiazine-3-[N-(2-pyridyl)-carboxamide]-1,1-dioxide] | 7.9 | comparable to the one of the reference compound | – | 12.3 | 97.2 | – | – | 1800 | 0.71 | about 35% | practically equally active | about 1/3 | 0.72 | at least 10 times | almost equally active | 1.52 | 0.49 | – |
| CN1C(C(=O)Nc2ccccn2)=C(O)c2ccccc2S1(=O)=O [piroxicam, reference compound] | 7.8 | – | – | – | – | – | – | 345 | – | – | – | – | – | – | – | – | – | 9.7 |
